Test results as given in US20150071856A1, “ANTAGONISTIC PEPTIDES FOR FRIZZLED-1 AND FRIZZLED-2” (Universiteit Maastricht, priority 2013, published 2015).
Positions of bridges follow the written chain, without caps; N, C: chain ends. Residues, ends and D or L forms follow the SMILES beside them. rhodamine = not defined here

Experiments:
canonical Wnt signaling = assay: Activity assay (Example 1): TOPflash luciferase reporter in HEK (HEK293-superTOPflash) cells, receptor not specified; type: cell-based, human; conditions: for effect of the peptide by itself on luciferase activity: without Wnt3a; for activity on the frizzled receptor: antagonist or agonist: model of Example 1
Experimental: (§1) Human embryonic kidney (HEK) cells were used for screening. These cells have a luciferase construct stably transfected into the genome (see FIG. 2A), such that when the frizzled receptor is activated and β-catenin is increased, the luciferase is activated by transcription and light can be measured.
(§2) The peptides were tested by transfecting the frizzled-1 or the frizzled-2 receptor and addition of UM206(S-S) to the cell culture. For testing antagonistic activity, UM206 was added and the natural ligand Wnt3a was added, which is a natural stimulus for the canonical pathway.
Transfection and Luciferase Measurement:
Plate cells in 12-well plates
(§3) Day 2: Transfection 12-Well Plates • heat Fugene6 and DNA 15 minutes at RT • 2 ml serum-free medium in tube • add 3 μl fugene • add 2 μg DNA • incubate 30 minutes at RT • wash with PBS • add 50 μl transfectiemix • add 1 ml antibiotica-free medium
(§4) Day 3: Add Conditioned Medium or UM206
(§5) Day 4: Luciferase Activity Measurements • remove medium • wash with PBS • add 500 μl ⅕ lysisbuffer • shake for 60 minutes • centrifuge in tube • 20 μl lysaat and 50 μl luciferase in new tube for measurement • vortex • measure
(§6) Three areas of high homology that contained two cysteines are underlined (UM207), (UM208) and (UM206). In FIGS. 9B through 9D, the inhibitory effect of these three peptides on Wnt3a-induced luciferase activity in HEK293-superTOPflash is shown. […] Again, the peptides by themselves had no effect on the luciferase activity.
(§7) The cell lines were cultured in 75 cm^2 culture flasks (Corning, Schiphol, the Netherlands) in Dulbeco's modified essential medium with L-glutamine (2 mM), 10% fetal calf serum (Invitrogen, Merelbeke, Belgium), and 1% gentamycin (Sigma-Aldrich, Zwijndrecht, The Netherlands). Before starting the experiment, the cell lines were treated with plasmocin 25 μg/ml (Invivogen, Toulose, France) and tested with a mycoalert mycoplasma detection kit (Lonza, Rockland Me., USA). Cells were transiently transfected with Fugene6 (Roche, Indianapolis Ind., USA) with plasmid DNA, pcDNA3.1/hygro (Invitrogen) with frizzled-1/2/4 or Wnts 3a-5a or with pcDNA3.0 (Invitrogen) containing the β-catenin or frizzled-5 sequence. After transfection, the cells were cultured for 24 hours in conditioned medium, collected from the cultured L-cells, L-cells with Wnt3a or 5a (Invitrogen). At the same moment the antagonist was added.
For the luciferase experiments not in HEK cells, the cells were additionally transfected with a TOPflash construct, eight TCF/LEF binding sites cloned into the pTA-Luc vector. Luciferase activity was measured using luciferase assay system (Promega, Madison Wis., USA).

frizzled-1 (rFzd-1) = biological target: T1, frizzled-1 (rFzd-1) (Rattus norvegicus, UniProt Q08463); assay: Activity assay: luciferase reporter in HEK superTOPflash cells transfected with frizzled-1; type: cell-based; conditions: for block of Wnt3a-induced luciferase activity, rFzd-1: peptide 1.10^−8 M
T1 construct: expressed in transfected cells; host or cells: HEK293 superTOPflash (transient, Fugene6, pcDNA3.1/hygro)
Experimental: as §1, §2, §3, §4, §5, §6
(§8) To determine the inhibitory constant of UM206-8, HEK293-superTOPflash cells were transfected with either rFzd-1 or -2 and incubated with Wnt3a (10^−9M) in the presence of increasing concentrations of either of the peptides (FIG. 15). For UM206, a biphasic inhibition curve was observed that was best fitted with a two-binding-state model.
as §7

frizzled-2 (rFzd-2) = biological target: T2, frizzled-2 (rFzd-2) (Rattus norvegicus, UniProt Q08464); assay: Activity assay: luciferase reporter in HEK superTOPflash cells transfected with frizzled-2; type: cell-based; conditions: for block of Wnt3a-induced luciferase activity, rFzd-2: peptide 1.10^−8 M
T2 construct: expressed in transfected cells; host or cells: HEK293 superTOPflash (transient, Fugene6, pcDNA3.1/hygro)
Experimental: as §1, §2, §3, §4, §5, §6, §8, §7

hFzd-4 = biological target: T3, hFzd-4 (Homo sapiens, UniProt Q9ULV1); assay: Receptor specificity: luciferase in HEK293 superTOPflash cells overexpressing hFzd-4; type: cell-based; conditions: FIG. 3, Panel F
T3 construct: expressed in transfected cells; host or cells: HEK293 superTOPflash (transient, Fugene6, pcDNA3.1/hygro)
T3 sequence (Q9ULV1 37-537): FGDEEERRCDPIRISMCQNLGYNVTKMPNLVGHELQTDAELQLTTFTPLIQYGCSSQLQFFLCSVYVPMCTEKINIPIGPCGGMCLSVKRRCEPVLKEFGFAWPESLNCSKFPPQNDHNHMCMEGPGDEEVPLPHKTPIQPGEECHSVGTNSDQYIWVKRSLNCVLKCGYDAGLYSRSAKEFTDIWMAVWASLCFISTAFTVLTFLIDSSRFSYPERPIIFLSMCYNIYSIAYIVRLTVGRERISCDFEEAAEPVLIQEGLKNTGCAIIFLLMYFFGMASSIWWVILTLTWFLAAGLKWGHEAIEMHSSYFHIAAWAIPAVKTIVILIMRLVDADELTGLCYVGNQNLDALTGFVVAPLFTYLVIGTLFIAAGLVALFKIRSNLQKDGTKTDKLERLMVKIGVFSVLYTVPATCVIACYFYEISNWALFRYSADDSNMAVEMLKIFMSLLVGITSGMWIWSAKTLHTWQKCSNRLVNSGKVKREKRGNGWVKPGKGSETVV
Experimental: In FIG. 3, Panel E, the efficacy of UM206 to block the Wnt3a-induced activation of luciferase activity in HEK293 superTOPflash cells transfected with different Fzds is shown.
as §7

Fzd-1 and -2 = assay: Binding of rhodamine-labeled UM206 to frozen sections of mouse kidney and small intestine and its blocking
Experimental: Specificity of the binding site was confirmed by prior incubation of the tissue sections with UM207 (1.10^−7 M) or recombinant Wnt3a (1.10^−8 M).
One-half of the hearts of the mice was embedded in paraffin and cut in 4 μm sections. The paraffin sections were rehydrated and washed in PBS. One section was stained with AZAN, allowing an accurate determination of the infarct size. To visualize the myofibroblasts in the infarct area, the sections were incubated with an antibody directed against α-smooth muscle actin (Sigma-Aldrich), followed by incubation with the peroxidase-conjugated secondary antibody (Vector laboratories). Nuclei were visualized by hematoxylin. Photos were taken with a Leica (CTR500, 63×/0.85) camera and analyzed with the Quantimet program (QWin/QGo). An examiner blinded to the groups of the animals obtained all measurements. For the experiments with Rhodamine-labeled UM206, frozen sections (4 μm) of mouse kidney and small intestine were used.

T2 sequence (Q08464 29-570): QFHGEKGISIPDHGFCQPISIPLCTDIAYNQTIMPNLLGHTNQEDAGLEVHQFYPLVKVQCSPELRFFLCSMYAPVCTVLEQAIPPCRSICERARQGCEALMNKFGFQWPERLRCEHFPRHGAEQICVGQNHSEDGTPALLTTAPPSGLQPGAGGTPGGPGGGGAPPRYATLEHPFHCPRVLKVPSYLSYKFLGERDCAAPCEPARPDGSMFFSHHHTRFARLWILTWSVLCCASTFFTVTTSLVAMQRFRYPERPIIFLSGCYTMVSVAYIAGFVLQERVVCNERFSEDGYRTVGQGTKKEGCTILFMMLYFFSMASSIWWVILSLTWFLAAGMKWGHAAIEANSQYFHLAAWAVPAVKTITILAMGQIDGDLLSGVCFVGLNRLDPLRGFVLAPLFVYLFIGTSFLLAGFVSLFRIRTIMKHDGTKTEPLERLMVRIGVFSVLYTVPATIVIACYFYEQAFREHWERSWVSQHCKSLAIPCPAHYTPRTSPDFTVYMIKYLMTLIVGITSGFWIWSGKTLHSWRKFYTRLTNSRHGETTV
T1 sequence (Q08463 69-641): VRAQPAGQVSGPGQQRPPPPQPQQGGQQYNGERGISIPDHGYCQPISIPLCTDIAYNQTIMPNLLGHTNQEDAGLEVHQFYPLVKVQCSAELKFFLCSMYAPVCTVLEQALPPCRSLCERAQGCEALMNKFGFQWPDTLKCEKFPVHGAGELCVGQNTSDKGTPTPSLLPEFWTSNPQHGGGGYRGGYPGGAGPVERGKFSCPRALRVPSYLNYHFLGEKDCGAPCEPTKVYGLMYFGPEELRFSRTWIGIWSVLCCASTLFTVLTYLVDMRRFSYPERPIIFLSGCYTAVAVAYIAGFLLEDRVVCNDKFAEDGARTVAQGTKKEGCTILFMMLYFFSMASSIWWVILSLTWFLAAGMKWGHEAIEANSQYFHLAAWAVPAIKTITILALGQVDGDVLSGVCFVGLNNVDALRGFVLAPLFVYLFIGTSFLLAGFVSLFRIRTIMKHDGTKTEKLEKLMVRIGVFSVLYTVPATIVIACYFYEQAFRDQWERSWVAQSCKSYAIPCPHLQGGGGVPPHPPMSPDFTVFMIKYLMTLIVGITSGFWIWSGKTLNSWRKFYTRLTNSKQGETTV

block of Wnt3a-induced luciferase activity, rFzd-1 (frizzled-1 (rFzd-1)) | block of Wnt3a-induced luciferase activity, rFzd-2 (frizzled-2 (rFzd-2)) | Molecule | effect of the peptide by itself on luciferase activity (canonical Wnt signaling) | activity on the frizzled receptor: antagonist or agonist (canonical Wnt signaling) | other results
blocked almost completely | blocked almost completely | CC(=O)NCC(=O)N[C@@H](CO)C(=O)N[C@@H](CS)C(=O)N[C@@H](CO)C(=O)N[C@@H](CC(C)C)C(=O)N[C@@H](CCCCN)C(=O)N[C@H](C(=O)N[C@@H](CS)C(=O)N[C@@H](Cc1c[nH]c2ccccc12)C(=O)N[C@@H](CC(C)C)C(=O)N[C@@H](CCC(N)=O)C(=O)N[C@@H](CC(C)C)C(=O)N[C@@H](C)C(=O)N[C@@H](CC(=O)O)C(N)=O)[C@@H](C)O [UM208, GSCSLKTCWLQLAD] (Ac-GSCSLKTCWLQLAD-NH2) | none of the three peptides by itself could induce an increase in luciferase activity |  | 
 |  | CNVSSHGIDGCDL (listed as Homo sapiens) [peptide derived from the area of Wnt3a homologous to UM206] |  |  | antagonistic properties of UM206 analogues (canonical Wnt signaling; alanine scan and modifications, 1.10-9 M): potency was lower than that of UM206
 |  | CSCC[C@@H]1NC(=O)CNC(=O)[C@H](CCC(=O)O)NC(=O)[C@H](CO)NC(=O)[C@H]([C@@H](C)O)NC(=O)[C@H](CCCCN)NC(=O)[C@H](CC(N)=O)NC(=O)[C@@H](NC(C)=O)CSSC[C@@H](C(=O)N[C@@H](CCC(=O)O)C(=O)N[C@@H](CC(C)C)C(N)=O)NC(=O)CNC(=O)[C@H](CC(=O)O)NC1=O [UM206(S-S)] (Ac-CNKTSEGMDGCEL-NH2; disulfide 1-11) |  | potent agonist | agonist activity at frizzled-1 (frizzled-1 (rFzd-1); FIG. 3, Panel F): specific agonist; agonist activity at frizzled-2 (frizzled-2 (rFzd-2); FIG. 3, Panel F): specific agonist; agonist activity at frizzled-4 (hFzd-4): not for frizzled-4 or frizzled-5
blocked almost completely | blocked almost completely | CC[C@H](C)[C@H](NC(=O)CNC(C)=O)C(=O)N[C@@H](CCCCN)C(=O)N[C@@H](CCC(=O)O)C(=O)N[C@@H](CS)C(=O)N[C@@H](CCC(N)=O)C(=O)N[C@@H](Cc1ccc(O)cc1)C(=O)N[C@@H](CCC(N)=O)C(=O)N[C@@H](Cc1ccccc1)C(=O)N[C@@H](CCCNC(=N)N)C(=O)N[C@@H](Cc1c[nH]cn1)C(=O)N[C@@H](CCCNC(=N)N)C(=O)N[C@@H](CCCNC(=N)N)C(=O)N[C@@H](Cc1c[nH]c2ccccc12)C(=O)N[C@@H](CC(N)=O)C(=O)N[C@@H](CS)C(=O)N[C@@H](CO)C(=O)N[C@H](C(=O)N[C@H](C(=O)N[C@@H](CC(=O)O)C(N)=O)C(C)C)[C@@H](C)O [UM207] (Ac-GIKECQYQFRHRRWNCSTVD-NH2) | none of the three peptides by itself could induce an increase in luciferase activity | potent antagonist | blocking of UM206-rhodamine binding by prior incubation (Fzd-1 and -2; UM206-rhodamine 1.10^−8 M, UM207 1.10^−7 M, Wnt3a 1.10^−8 M): completely abolished the binding of UM206-rhodamine
 |  | UM206-rhodamine: UM206 with rhodamine attached to Lys^3 (Ac-CNK(rhodamine)TSEGMDGCEL-NH2; cysteine pairing not given here; reading uncertain) |  |  | effect of rhodamine attachment to Lys^3 on IC50 for blocking Wnt3a-induced luciferase expression (canonical Wnt signaling; HEK293 superTOPflash cells, not shown): did not affect its IC50 value; staining of tissue sections (Fzd-1 and -2; 1.10^−8 M, 15 minutes, two-foton microscopy): staining of tubular epithelium and panneth cells
